Tests used:
[1] = UGTs/CYPs dual-activity mouse liver microsomal stability; type: in vitro ADME; details: for UGTs/CYPs dual-activity mouse liver microsomal stability: 5 μM, NADPH + UDP-GlcUA; for half-life at 5 µM / microsomal CLint at 1 h, 5 µM / half-life at 1 h, 5 µM: CD-1, mouse liver microsomes; for half-life at 5 µM / half-life at 1 h, 5 µM: 0.693/k, read-out: in vitro half-life; for microsomal CLint at 1 h, 5 µM: read-out: microsomal intrinsic clearance (CLint,micr)
Procedure: Initially, the chemical stability of the compounds was studied in phosphate buffer at pH 7.4. […] The same stability was evident in mouse plasma at two different time points (1 and 2 h, Table 2). In addition, all the compounds were subjected to an in vitro microsomal stability assay. In this assay, the metabolism of the parent compound over time (up to 60 min) was measured by liquid chromatography–mass spectrometry (LC–MS) in the presence of CYP450 and UGTs (uridine 5′-diphospho-glucuronosyltransferases) microsomal systems. The measurement of hepatic metabolism also allowed the determination of different pharmacokinetic parameters such as in vitro intrinsic clearance (CLint,micr) and to predict in vivo intrinsic clearance (CLint). The predicted in vivo CLint values were calculated using a microsomal protein value of 45 mg per gram of liver tissue and 87 g of liver per kg of body weight. The microsomal stability assay was validated using testosterone (low stability in the presence of NADPH), 2-naphthol (low stability using NADPH and UDPGA cofactors), and 3-(α-acetonylbenzyl)-4-hydroxy coumarin (high stability in dual-activity assay) as positive controls. To detect nonspecific protein binding or heat instability, the compounds were incubated without cofactors (negative control). Moreover, since microsomal concentrations > 2 mg mL^–1 are not recommended due to a potential negative impact of increased nonspecific binding on the rate of metabolism,[25] in our assay we used a low concentration of liver microsomes (0.5 mg mL^–1).
For microsomal stability assay, 25 μL of 5 mg mL^–1 mouse (CD-1) microsomes (Thermo Fisher Scientific, Bremen, Germany) were preincubated for 5 min at 37 °C with alamethicin and 2.5 μL of each sample (5 μM). The reaction started by adding a 50 μL mixture of 10 mM NADPH and UDP-GlcUA as cofactors (1:1 v/v) and was carried out at 37 °C for 15, 30, and 60 min in a Thermomixer comfort. The reaction was stopped by the addition of 200 μL of ice-cold methanol containing IS, and then samples were centrifuged at 14,680 rpm at 25 °C for 7 min (Eppendorf microcentrifuge 5424, Hamburg, Germany). The supernatants were collected and injected in LC-MS.
The control at 0 min was obtained by the addition of the organic solvent immediately after incubation with microsomes. Testosterone, 2-naphthol, and 3-(α-acetonylbenzyl)-4-hydroxy coumarin were used as the positive controls, while the negative control was prepared by incubation for up to 60 min without cofactors. The extent of metabolism is expressed as a percentage of the parent compound turnover. All experiments were performed in triplicate.

Human recombinant sEH = target: T1, Human recombinant sEH (Homo sapiens, UniProt P34913); experiment: Cell-free sEH activity (PHOME fluorescence); type: biochemical; details: human isolated sEH
T1 construct: made in house; host or cells: Sf9 insect cells (recombinant baculovirus)
T1 sequence (P34913 1-555): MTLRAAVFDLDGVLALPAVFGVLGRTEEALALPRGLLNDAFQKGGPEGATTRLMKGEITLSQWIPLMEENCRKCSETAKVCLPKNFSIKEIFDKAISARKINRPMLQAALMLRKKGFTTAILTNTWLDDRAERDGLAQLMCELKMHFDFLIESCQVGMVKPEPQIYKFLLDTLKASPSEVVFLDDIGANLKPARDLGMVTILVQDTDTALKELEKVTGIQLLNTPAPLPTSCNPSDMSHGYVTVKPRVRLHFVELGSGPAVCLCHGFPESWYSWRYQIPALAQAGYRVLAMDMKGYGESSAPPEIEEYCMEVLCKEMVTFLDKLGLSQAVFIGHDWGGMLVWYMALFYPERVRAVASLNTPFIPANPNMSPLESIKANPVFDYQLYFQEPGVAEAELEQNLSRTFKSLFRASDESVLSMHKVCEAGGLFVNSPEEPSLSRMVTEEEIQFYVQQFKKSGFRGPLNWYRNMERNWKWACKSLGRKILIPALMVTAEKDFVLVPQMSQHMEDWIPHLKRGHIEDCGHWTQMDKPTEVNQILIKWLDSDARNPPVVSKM
Procedure: Human recombinant sEH was expressed in Sf9 insect cells and purified by affinity chromatography. […] Elution with 4-fluorochalcone oxide in PBS pH 7.4 with 1 mM dithiothreitol and 1 mM EDTA yielded sEH, which was dialyzed and concentrated. Purified sEH (60 ng) in 25 mM Tris HCl pH 7 with 0.1 mg/mL bovine serum albumin (BSA) was preincubated with the vehicle (DMSO) or test compounds for 1 min at room temperature. The sEH substrate PHOME (20 μM, Cayman Chemicals) was added to start the enzymatic reaction, which was stopped after 60 min in the dark by the addition of ZnSO4 (200 mM).

Mouse plasma stability = type: in vitro ADME; details: 37 °C, 5 μM
Procedure: Mouse plasma is warmed to 37 °C for 10 min, mixed, and centrifuged to pellet any aggregated protein. Biotransformation is initiated by adding 1.25 μL of compound solution (5 μM final incubation concentration), and the incubation was carried out at 37 °C for 120 min in a Thermomixer comfort (Eppendorf, Hamburg, Germany). At each specified time point (0, 60, and 120 min), compounds were removed into 200 μL of ice-cold methanol containing IS to stop degradation. Finally, the concentration of the test compound was quantified by LC-MS. All experiments were performed in triplicate. Procaine (low stability) and procainamide (high stability) were used as controls.

SMILES	UGTs/CYPs dual-activity mouse liver microsomal stability ([1]; 0.25 h, 0.5 mg mL–1 microsomes) [%]	UGTs/CYPs dual-activity mouse liver microsomal stability ([1]; 0.5 h) [%]	UGTs/CYPs dual-activity mouse liver microsomal stability ([1]; 1.0 h) [%]	half-life at 5 µM [1] [min]	microsomal CLint at 1 h, 5 µM [1] [µL/min/mg]	IC50 (Human recombinant sEH) [nM]	mouse plasma stability (Mouse plasma stability; 1.0 h) [%]	mouse plasma stability (Mouse plasma stability; 2.0 h) [%]	half-life at 1 h, 5 µM [1] [min]
O=C(Nc1ccc2c(c1)CCN2Cc1ccc(F)cc1)NC12C[C@H]3C[C@@H](C1)C[C@@H](C2)C3 [Compound 6, 1-((3S,5S,7S)-Adamantan-1-yl)-3-(1-(4-fluorobenzyl)indolin-5-yl)urea]	21.3 ± 0.9	10.9 ± 0.1	10.6 ± 0.1	20.4	67.8	7.22 ± 1.11	97.3 ± 0.7	100.7 ± 2.3	
O=C(NCC12C[C@H]3C[C@@H](C1)C[C@@H](C2)C3)Nc1ccc2c(ccn2C(=O)c2ccc(F)cc2)c1 [Compound 36, 1-(((3R,5R,7R)-Adamantan-1-yl)methyl)-3-(1-(4-fluorobenzoyl)-1H-indol-5-yl)urea]	20.4 ± 1.8	11.9 ± 0.6	2.4 ± 0.4		118	2.6 ± 0.4	98.2 ± 2.0	96.2 ± 2.8	11.8
CC(C)c1ccc(Cn2ccc3cc(NC(=O)NCC45C[C@H]6C[C@@H](C4)C[C@@H](C5)C6)ccc32)cc1 [Compound 28, 1-(((3R,5R,7R)-Adamantan-1-yl)methyl)-3-(1-(4-isopropylbenzyl)-1H-indol-5-yl)urea]	91.5 ± 2.2	69.8 ± 2.9	53.1 ± 2.8		22	2 ± 1.1	98.4 ± 3.3	101.3 ± 3.8	62.9
O=C(NCC12C[C@H]3C[C@@H](C1)C[C@@H](C2)C3)Nc1ccc2c(ccn2Cc2ccc(F)cc2)c1 [Compound 27, 1-(((3R,5R,7R)-Adamantan-1-yl)methyl)-3-(1-(4-fluorobenzyl)-1H-indol-5-yl)urea]	8.4 ± 0.3	3.2 ± 1.0	2.1 ± 0.7	11.9	117	1.75 ± 0.593	100.3 ± 0.2	102.2 ± 4.8	
O=C(NCC12C[C@H]3C[C@@H](C1)C[C@@H](C2)C3)Nc1ccc2c(ccn2CCc2ccc(F)cc2)c1 [Compound 30, 1-(((3R,5R,7R)-Adamantan-1-yl)methyl)-3-(1-(4-fluorophenethyl)-1H-indol-5-yl)urea]	16.6 ± 1.4	9.3 ± 0.6	5.7 ± 0.2	16	86.6	1.1 ± 0.4	96.2 ± 3.4	97.0 ± 2.3	

— PMC10350924, “Design, Synthesis, and Pharmacological Characterization of a Potent Soluble Epoxide Hydrolase Inhibitor for the Treatment of Acute Pancreatitis” (Journal of Medicinal Chemistry, 2023)
